Ten molecules from ChEMBL document CHEMBL3392983, “Synthesis, antimicrobial activity and molecular docking of novel tetracyclic scaffolds incorporating a flavonoid framework with medium sized oxygen heterocycles” (2015) can be followed below.

What all share (format): functional
One experiment deals with Candida tropicalis. The experiment can be described thus: Antimicrobial activity against Candida tropicalis ATCC 750 assessed as inhibition of microbial growth incubated for 72 hrs by broth dilution method. To be noted: ATCC 750, 72 h.
For experiment [1], the system named is Escherichia coli. The experiment can be described thus: Bactericidal activity against Escherichia coli ATCC 10536 assessed as microbial killing during 18 hrs post sub-culture onto drug-free solid media by broth dilution method. To be noted: ATCC 10536, 18 h, read-out: MBC99.9.
Experiment [2] deals with Bacillus subtilis. Kind of experiment: Antimicrobial activity against Bacillus subtilis ATCC 6633 assessed as inhibition of microbial growth incubated for 24 hrs by broth dilution method. The conditions noted are these: ATCC 6633, 24 h. (Dilution methods test growth across graded concentrations, often in twofold steps.)
Experiment [3] has as its system Bacillus subtilis. The experiment can be described thus: Bactericidal activity against Bacillus subtilis ATCC 6633 assessed as microbial killing during 18 hrs post sub-culture onto drug-free solid media by broth dilution method. To be noted: ATCC 6633, 18 h, read-out: MBC99.9.
The subject of experiment [4] is Pseudomonas aeruginosa. The experiment can be described thus: Antimicrobial activity against Pseudomonas aeruginosa ATCC 10145 assessed as inhibition of microbial growth incubated for 24 hrs by broth dilution method. The conditions noted are these: ATCC 10145, 24 h.
The test system of a further experiment is Candida albicans. The experiment can be described thus: Antimicrobial activity against Candida albicans ATCC 10231 assessed as inhibition of microbial growth incubated for 72 hrs by broth dilution method. The conditions noted are these: ATCC 10231, 72 h.
Experiment [5] concerns Staphylococcus aureus. Kind of experiment: Antimicrobial activity against Staphylococcus aureus ATCC 25923 assessed as inhibition of microbial growth incubated for 24 hrs by broth dilution method. To be noted: ATCC 25923, 24 h.
The subject of a further experiment is Klebsiella pneumoniae. Kind of experiment: Antimicrobial activity against Klebsiella pneumoniae ATCC 10031 assessed as inhibition of microbial growth incubated for 24 hrs by broth dilution method. To be noted: ATCC 10031, 24 h.
In experiment [6] the test system is Escherichia coli. Kind of experiment: Antimicrobial activity against Escherichia coli ATCC 10536 assessed as inhibition of microbial growth incubated for 24 hrs by broth dilution method. To be noted: ATCC 10536, 24 h.
Experiment [7] deals with Staphylococcus aureus. Kind of experiment: Bactericidal activity against Staphylococcus aureus ATCC 25923 assessed as microbial killing during 18 hrs post sub-culture onto drug-free solid media by broth dilution method. To be noted: ATCC 25923, 18 h, read-out: MBC99.9.
Experiment [8] concerns Pseudomonas aeruginosa. The experiment can be described thus: Bactericidal activity against Pseudomonas aeruginosa ATCC 10145 assessed as microbial killing during 18 hrs post sub-culture onto drug-free solid media by broth dilution method. The conditions noted are these: ATCC 10145, 18 h, read-out: MBC99.9.

A word on the MIC: it is the least concentration at which growth counts as inhibited.

Converted amounts (≈) assume the structure as drawn.

With `O=c1c2c(oc3ccccc13)-c1ccccc1OCCCCCO2`, the MIC in the experiment on Candida tropicalis is greater than 0.621 µM; in the experiment on Bacillus subtilis [2] it was 0.186 µM; in the experiment with Pseudomonas aeruginosa [4], 0.062 µM; with Candida albicans, greater than 0.621 µM; in the experiment with Staphylococcus aureus [5], 0.155 µM; in the experiment with Klebsiella pneumoniae it was 0.077 µM. For the same molecule, the minimum inhibitory concentration (MIC) in the experiment on Escherichia coli [6] came to 0.063 µM. Besides, the MBC with Escherichia coli [1] amounted to 0.059 µM (≈ 0.019 µg/mL); in the experiment with Bacillus subtilis [3], 0.159 µM (≈ 0.0513 µg/mL); in the experiment on Staphylococcus aureus [7], 0.154 µM (≈ 0.0496 µg/mL); in the experiment with Pseudomonas aeruginosa [8] it was 0.089 µM (≈ 0.0287 µg/mL).

Turning to `O=c1c(O)c(-c2ccccc2O)oc2ccc(Cl)cc12`, the minimal inhibitory concentration (MIC) in the experiment on Candida tropicalis is greater than 0.694 µM; with Bacillus subtilis [2], 0.173 µM; with Pseudomonas aeruginosa [4], 0.157 µM; with Candida albicans it was greater than 0.694 µM; in the experiment with Staphylococcus aureus [5], 0.19 µM; in the experiment with Klebsiella pneumoniae it was 0.138 µM. Besides, the minimum inhibitory concentration (MIC) in the experiment on Escherichia coli [6] came out at 0.14 µM.

Turning to `O=c1c2c(oc3ccc(Br)cc13)-c1ccccc1OCCCCO2`, the MIC in the experiment on Candida tropicalis is greater than 0.518 µM; in the experiment with Bacillus subtilis [2], 0.066 µM; with Pseudomonas aeruginosa [4], 0.051 µM; in the experiment on Candida albicans, greater than 0.518 µM; in the experiment with Staphylococcus aureus [5], 0.079 µM; in the experiment on Klebsiella pneumoniae, 0.09 µM. Further, in the experiment with Escherichia coli [6], the MIC was found to be 0.038 µM. For the same molecule, the MBC in the experiment on Escherichia coli [1] is 0.027 µM (≈ 0.0105 µg/mL); in the experiment with Bacillus subtilis [3] it was 0.053 µM (≈ 0.0205 µg/mL); in the experiment on Staphylococcus aureus [7], 0.024 µM (≈ 0.00929 µg/mL); with Pseudomonas aeruginosa [8], 0.024 µM (≈ 0.00929 µg/mL).

On to `O=c1c2c(oc3ccc(Cl)cc13)-c1ccccc1OCCCCO2`, for which the minimum inhibitory concentration (MIC) in the experiment with Candida tropicalis was greater than 0.584 µM; with Bacillus subtilis [2] it was 0.073 µM; with Pseudomonas aeruginosa [4], 0.146 µM; in the experiment with Candida albicans, greater than 0.584 µM; in the experiment with Staphylococcus aureus [5], 0.204 µM; in the experiment with Klebsiella pneumoniae, 0.146 µM. The MIC in the experiment on Escherichia coli [6] was found to be 0.029 µM. Also, the MBC in the experiment with Escherichia coli [1] was 0.028 µM (≈ 0.0096 µg/mL); with Bacillus subtilis [3], 0.024 µM (≈ 0.00823 µg/mL); in the experiment with Staphylococcus aureus [7] it was 0.154 µM (≈ 0.0528 µg/mL); in the experiment with Pseudomonas aeruginosa [8], 0.058 µM (≈ 0.0199 µg/mL).

In the case of `O=c1c2c(oc3ccc(F)cc13)-c1ccccc1OCCO2`, the MIC in the experiment on Candida tropicalis is greater than 0.671 µM; in the experiment on Bacillus subtilis [2] it was 0.117 µM; in the experiment on Pseudomonas aeruginosa [4], 0.1 µM; in the experiment on Candida albicans, greater than 0.671 µM; in the experiment with Staphylococcus aureus [5] it was 0.134 µM; in the experiment with Klebsiella pneumoniae, 0.117 µM. In addition, in the experiment with Escherichia coli [6], the MIC is 0.167 µM. The MBC was determined as 0.096 µM (≈ 0.0286 µg/mL) in the experiment with Escherichia coli [1], 0.073 µM (≈ 0.0218 µg/mL) with Bacillus subtilis [3], 0.093 µM (≈ 0.0277 µg/mL) in the experiment on Staphylococcus aureus [7] and 0.033 µM (≈ 0.00984 µg/mL) with Pseudomonas aeruginosa [8].

As for `O=c1c2c(oc3ccc(Br)cc13)-c1ccccc1OCCO2`, the MIC is greater than 0.558 µM in the experiment on Candida tropicalis; 0.027 µM in the experiment on Bacillus subtilis [2]; 0.097 µM in the experiment with Pseudomonas aeruginosa [4]; greater than 0.558 µM with Candida albicans; 0.027 µM in the experiment on Staphylococcus aureus [5]; 0.083 µM in the experiment on Klebsiella pneumoniae. Besides, the MIC with Escherichia coli [6] came to 0.097 µM. For the same molecule, the MBC in the experiment with Escherichia coli [1] is 0.061 µM (≈ 0.0219 µg/mL); in the experiment with Bacillus subtilis [3] it was 0.023 µM (≈ 0.00826 µg/mL); in the experiment on Staphylococcus aureus [7], 0.023 µM (≈ 0.00826 µg/mL); in the experiment with Pseudomonas aeruginosa [8] it was 0.061 µM (≈ 0.0219 µg/mL).

`O=c1c2c(oc3ccc(F)cc13)-c1ccccc1OCCCO2`: the minimum inhibitory concentration (MIC) is greater than 0.641 µM in the experiment on Candida tropicalis; 0.081 µM in the experiment with Bacillus subtilis [2]; 0.064 µM with Pseudomonas aeruginosa [4]; greater than 0.641 µM in the experiment with Candida albicans; 0.129 µM with Staphylococcus aureus [5]; 0.112 µM with Klebsiella pneumoniae. In the experiment with Escherichia coli [6], the MIC came to 0.16 µM. For the same molecule, the MBC amounted to 0.096 µM (≈ 0.03 µg/mL) in the experiment on Escherichia coli [1], 0.032 µM (≈ 0.00999 µg/mL) with Bacillus subtilis [3], 0.116 µM (≈ 0.0362 µg/mL) in the experiment on Staphylococcus aureus [7] and 0.032 µM (≈ 0.00999 µg/mL) in the experiment with Pseudomonas aeruginosa [8].

With `O=c1c2c(oc3ccc(Cl)cc13)-c1ccccc1OCCO2`, the minimum inhibitory concentration (MIC) is greater than 0.636 µM in the experiment with Candida tropicalis; 0.065 µM in the experiment on Bacillus subtilis [2]; 0.063 µM in the experiment with Pseudomonas aeruginosa [4]; greater than 0.636 µM in the experiment with Candida albicans; 0.033 µM with Staphylococcus aureus [5]; 0.047 µM with Klebsiella pneumoniae. In the experiment on Escherichia coli [6], the MIC came to 0.047 µM. The MBC in the experiment on Escherichia coli [1] stood at 0.027 µM (≈ 0.0085 µg/mL); with Bacillus subtilis [3], 0.035 µM (≈ 0.011 µg/mL); in the experiment with Staphylococcus aureus [7], 0.033 µM (≈ 0.0104 µg/mL); with Pseudomonas aeruginosa [8], 0.063 µM (≈ 0.0198 µg/mL).

With `O=c1c2c(oc3ccc(Cl)cc13)-c1ccccc1OCCCCCO2`, the MIC is greater than 0.561 µM in the experiment on Candida tropicalis; 0.028 µM in the experiment with Bacillus subtilis [2]; 0.07 µM in the experiment with Pseudomonas aeruginosa [4]; greater than 0.561 µM with Candida albicans; 0.14 µM with Staphylococcus aureus [5]; 0.028 µM in the experiment on Klebsiella pneumoniae. For the same molecule, in the experiment with Escherichia coli [6], the MIC turned out to be 0.057 µM. In addition, the MBC worked out at 0.034 µM (≈ 0.0121 µg/mL) with Escherichia coli [1], 0.014 µM (≈ 0.005 µg/mL) with Bacillus subtilis [3], 0.088 µM (≈ 0.0314 µg/mL) in the experiment with Staphylococcus aureus [7] and 0.028 µM (≈ 0.00999 µg/mL) in the experiment with Pseudomonas aeruginosa [8].

As for `OC(Cn1cncn1)(Cn1cncn1)c1ccc(F)cc1F` [FLUCONAZOLE], the MIC with Candida tropicalis and in the experiment on Candida albicans was no more than 0.033 µM each time.
